In patent publication US6545045B1, “Prostaglandin E agonists for treatment of glaucoma” (Alcon Manufacturing, Ltd., priority 1998, dated 2003):

Tests used:
[1] = molecular target: T1, EP4 receptors (Cricetulus griseus, UniProt A0A061ILF4); test: cAMP production (radioimmunoassay) via EP4 receptors in Chinese hamster ovary cells; assay type: cell-based; conditions: stimulated 15-60 min at 23° C; for EC50: read-out: Potency (EC50, nM) at EP4 Receptors in Chinese Hamster Ovary Cells
T1 construct: Chinese hamster ovary cells (containing EP4 receptors); endogenous in cells; host or cells: Chinese hamster ovary (CHO) cells
T1 sequence (A0A061ILF4 1-488): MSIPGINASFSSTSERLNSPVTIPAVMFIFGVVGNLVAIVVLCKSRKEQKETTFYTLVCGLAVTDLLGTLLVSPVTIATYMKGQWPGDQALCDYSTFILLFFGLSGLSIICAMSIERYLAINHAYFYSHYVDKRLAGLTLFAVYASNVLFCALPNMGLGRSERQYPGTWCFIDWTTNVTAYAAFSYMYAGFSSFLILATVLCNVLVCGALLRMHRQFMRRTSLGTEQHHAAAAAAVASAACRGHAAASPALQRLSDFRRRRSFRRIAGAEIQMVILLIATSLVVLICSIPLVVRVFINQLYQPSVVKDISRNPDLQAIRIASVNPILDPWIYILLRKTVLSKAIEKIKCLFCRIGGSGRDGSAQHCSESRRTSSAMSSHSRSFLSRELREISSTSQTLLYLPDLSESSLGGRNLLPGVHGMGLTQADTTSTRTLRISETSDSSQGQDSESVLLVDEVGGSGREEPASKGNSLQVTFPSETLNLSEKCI
Experimental: (§1) Immortalized human non-pigmented ciliary epithelial cells (containing EP2 receptors) and Chinese hamster ovary cells (containing EP4 receptors, Milne et al. Human moncytes and cultured Chinese hamster ovary cells express EP4 receptors positively coupled to adenylate cyclase, Br. J. Pharmacology, 113 (supplement):8 (1994)) were stimulated with various prostaglandins for 15-60 min at 23° C. The cAMP produced by receptor activation was determined by a specific radioimmunoassay as previously described (Sharif et al., Pharmacological analysis of mast cell mediator and neurotransmitter receptors coupled to adenylate cyclase and phospholipase C on immunocytochemically-defined human conjunctival epithelial cells, J. Ocular Pharmacology & Therapeutics, 13, 321-336 (1997); Crider et al. Prostaglandin-stimulated adenylyl cyclase activity via a pharmacologically-defined EP2 receptor in human non-pigmented epithelial cells, J. Ocular Pharmacology & Therapeutics 14:293-304 (1998); Crider et al. Use of a semi-automated, robotic radioimmunoassay to measure cAMP generated by activation of DP-, EP2- and IP-prostaglandin receptors in human ocular and other cell-types, Prostaglandins, Leukotrienes & Fatty Acids 59:77-82 (1998), Milne et al. Human moncytes and cultured Chinese hamster ovary cells express EP4 receptors positively coupled to adenylate cyclase, Br. J. Pharmacology, 113 (supplement):8, (1994)).

[2] = molecular target: T2, EP2 receptors (Homo sapiens, UniProt P43116); test: cAMP production (radioimmunoassay) via EP2 receptors in immortalized human non-pigmented ciliary epithelial cells; assay type: cell-based
T2 construct: Immortalized human non-pigmented ciliary epithelial cells (containing EP2 receptors); endogenous in cells; host or cells: immortalized human non-pigmented ciliary epithelial cells
T2 sequence (P43116 whole entry): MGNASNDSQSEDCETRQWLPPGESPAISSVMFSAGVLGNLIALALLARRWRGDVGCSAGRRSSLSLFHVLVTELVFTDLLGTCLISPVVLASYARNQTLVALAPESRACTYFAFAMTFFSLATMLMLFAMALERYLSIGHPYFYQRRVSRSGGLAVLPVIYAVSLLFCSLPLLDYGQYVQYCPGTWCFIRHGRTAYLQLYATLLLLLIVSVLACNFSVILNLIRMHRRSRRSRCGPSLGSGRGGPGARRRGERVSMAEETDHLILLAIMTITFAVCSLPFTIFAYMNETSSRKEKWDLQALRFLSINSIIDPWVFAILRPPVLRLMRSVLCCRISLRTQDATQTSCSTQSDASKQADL
Experimental: as §1

[3] = cAMP production, stimulated 15-60 min at 23° C

Compound: O=C(O)CCC/C=C\C[C@@H]1[C@@H](/C=C/[C@@H](O)COc2cccc(C(F)(F)F)c2)[C@H](O)C[C@@H]1O (racemic) [Fluprostenol]
- Potency (EC50, nM) at EP4 Receptors in Chinese Hamster Ovary Cells [1]: Inactive
- Potency (EC50, nM) at EP4 Receptors in Chinese Hamster Ovary Cells ([1]; listed as fluprostenol): inactive
- Potency (EC50, nM) at EP2 Receptors in Immortalized Human Non-pigmented Ciliary Epithelial Cells [2, 3]: Inactive
- Potency (EC50, nM) at EP2 Receptors in Immortalized Human Non-pigmented Ciliary Epithelial Cells ([2]; cAMP production, stimulated 15-60 min at 23° C, listed as fluprostenol): inactive

Compound: CCCCC(C)(C)[C@H](O)/C=C/[C@H]1CCC(=O)[C@@H]1C/C=C\CCCC(=O)O [11-deoxy-16,16-dimethyl-PGE2, 11-deoxy-16,16-dimethyl PGE2]
- efficacy at EP4 Receptors in Chinese Hamster Ovary Cells [1]: 99%

Compound: CCCCC[C@H](O)/C=C/[C@H]1CCC(=O)[C@@H]1CCCCCCC(=O)O [11-deoxy-PGE1]
- efficacy at EP4 Receptors in Chinese Hamster Ovary Cells [1]: 86%
- EC50 [1]: 38 nM
- EC50 ([2]; cAMP production, stimulated 15-60 min at 23° C, read-out: Potency (EC50, nM) at EP2 Receptors in Immortalized Human Non-pigmented Ciliary Epithelial Cells): 500 nM

Compound: CCCCC(C)(C)[C@H](O)/C=C/[C@H]1[C@H](O)CC(=O)[C@@H]1C/C=C\CCCC(=O)O [16,16-dimethyl-PGE2, 16,16-dimethyl PGE2]
- efficacy at EP4 Receptors in Chinese Hamster Ovary Cells [1]: 100%

Compound: CCCC1([C@H](O)C/C=C/[C@H]2[C@H](O)CC(=O)[C@@H]2CCCCCCC(=O)OC)CCC1 [Butaprost]
- selectivity between EP2 and EP4 receptors (relative agonist potency) ([2]; EP2 versus EP4, from EC50 values of Table 1): more EP2-selective

Compound: O=C(O)CCC/C=C\CC1C(O)CC(O)C1/C=C/C(O)COc1cccc(Cl)c1 (stereo not shown) [Cloprostenol]
- Potency (EC50, nM) at EP4 Receptors in Chinese Hamster Ovary Cells [1]: Inactive
- Potency (EC50, nM) at EP4 Receptors in Chinese Hamster Ovary Cells ([1]; listed as cloprostenol): inactive
- Potency (EC50, nM) at EP2 Receptors in Immortalized Human Non-pigmented Ciliary Epithelial Cells [2, 3]: Inactive
- Potency (EC50, nM) at EP2 Receptors in Immortalized Human Non-pigmented Ciliary Epithelial Cells ([2]; cAMP production, stimulated 15-60 min at 23° C, listed as cloprostenol): inactive

Compound: CCCCC[C@H](O)/C=C/[C@H]1[C@H](O)CC(=O)[C@@H]1C/C=C\CCCC(=O)O [PGE2]
- efficacy at EP4 Receptors in Chinese Hamster Ovary Cells [1]: 100%
- EC50 [1]: 35 nM
